Assay results: patent US12018229B2, “Organic compounds” (Givaudan SA, priority 2018, dated 2024)

Experiment: Determination of GC-odor threshold values (gas chromatograph with sniff port, panel of trained evaluators)
Conditions: absolute amount of compound delivered at the sniff port, identical conditions
Method: According to standard procedures known to the person skilled in the art, threshold values for volatile perfumery compounds are determined on a gas chromatograph equipped with a sniff port by a panel of trained evaluators. The lowest concentration smelled by each panelist is recorded as the individual threshold value expressed in ng (absolute amount of compound delivered at the sniff port).
Under identical conditions the odor threshold value for the individual compounds was measured.

Compared with CC1=CCOC(CCCc2ccccc2)C1 (centres unmarked) [Example 1, 4-Methyl-2-(3-phenylpropyl)-3,6-dihydro-2H-pyran], CC1=CCOC(CCCCc2ccccc2)C1 (centres unmarked) [Example 4, 4-Methyl-2-(4-phenylbutyl)-3,6-dihydro-2H-pyran, reference compound] is higher in odor threshold value: 0.02 ng for the first, 63 ng for the second.

Compared with CC1=CC(C)OC(CCCc2ccccc2)C1 (centres unmarked) [Example 2, 4,6-Dimethyl-2-(3-phenylpropyl)-3,6-dihydro-2H-pyran], CC1=CCOC(CCc2ccccc2)C1 (centres unmarked) [Example 5, 4-Methyl-2-phenethyl-3,6-dihydro-2H-pyran, reference compound] is higher in odor threshold value: 0.03 ng for the first, 45 ng for the second.

Work on CC1=CCOC(Cc2ccccc2)C1 (centres unmarked) [Example 3, 2-Benzyl-4-methyl-3,6-dihydro-2H-pyran] yielded an odor threshold value of 0.03 ng.
